In brackets after ≈: the same amount, converted by molar mass.
Experiments:
S. aureus 1086 = test: MIC, standard microdilution; type: cell-based, Staphylococcus aureus; settings: Staphylococcus aureus, read-out: minimum inhibitory concentration (MIC)
Summary of the method: (§1)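 Read-out is the MIC from a standard microdilution susceptibility test. The procedure was performed as laid down in the NCCLS guideline for aerobic organisms.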

S. aureus 745 = test: MIC, standard microdilution; type: cell-based, Staphylococcus aureus; settings: Staphylococcus aureus, read-out: minimum inhibitory concentration (MIC)
Summary of the method: as §1

S. aureus ATCC29213 = test: MIC, standard microdilution; type: cell-based, Staphylococcus aureus; settings: Staphylococcus aureus, read-out: minimum inhibitory concentration (MIC)
Summary of the method: as §1

E. coli ATCC25922 = test: MIC, standard microdilution; type: cell-based; settings: Escherichia coli, read-out: minimum inhibitory concentration (MIC)
Summary of the method: as §1

[1] = test system: P. aeruginosa ATCC27853 (+Ery. 32 μg/ml); test: MIC, standard microdilution; type: cell-based
Summary of the method: as §1

St. pneumoniae 1/1 = test: MIC, standard microdilution; type: cell-based, Streptococcus pneumoniae; settings: Streptococcus pneumoniae, read-out: minimum inhibitory concentration (MIC)
Summary of the method: as §1

St. pneumoniae 1/4 = test: MIC, standard microdilution; type: cell-based, Streptococcus pneumoniae; settings: Streptococcus pneumoniae, read-out: minimum inhibitory concentration (MIC)
Summary of the method: as §1

St. pneumoniae 12288 = test: MIC, standard microdilution; type: cell-based, Streptococcus pneumoniae; settings: Streptococcus pneumoniae, read-out: minimum inhibitory concentration (MIC)
Summary of the method: as §1

St. pneumoniae SL199T = test: MIC, standard microdilution; type: cell-based, Streptococcus pneumoniae; settings: Streptococcus pneumoniae, read-out: minimum inhibitory concentration (MIC)
Summary of the method: as §1

H. influenzae 11 = test: MIC, agar dilution, HTM medium; type: cell-based, Haemophilus influenzae; settings: Haemophilus influenzae, read-out: MIC
Description: (§2) The biological activities of compounds of the present invention against Haemophilus influenzae have been determined by standard agar dilution method using HTM medium (National Committee for Clinical Laboratory Standards. 1997. Methods for dilution antimicrobial susceptibility tests for bacteria that grow aerobically, 4th edition. Approved standard M7-A4. National Committee for Clinical Laboratory Standards, Wayne, Pa.).

H. influenzae 12214 = test: MIC, agar dilution, HTM medium; type: cell-based, Haemophilus influenzae; settings: Haemophilus influenzae, read-out: MIC
Description: as §2

H. influenzae 1 = test: MIC, agar dilution, HTM medium; type: cell-based, Haemophilus influenzae; settings: Haemophilus influenzae, read-out: MIC
Description: as §2

H. influenzae 23145 = test: MIC, agar dilution, HTM medium; type: cell-based, Haemophilus influenzae; settings: Haemophilus influenzae, read-out: MIC
Description: as §2

H. influenzae 23369 = test: MIC, agar dilution, HTM medium; type: cell-based, Haemophilus influenzae; settings: Haemophilus influenzae, read-out: MIC
Description: as §2

H. influenzae 2947 = test: MIC, agar dilution, HTM medium; type: cell-based, Haemophilus influenzae; settings: Haemophilus influenzae, read-out: MIC
Description: as §2

H. influenzae 3201 = test: MIC, agar dilution, HTM medium; type: cell-based, Haemophilus influenzae; settings: Haemophilus influenzae, read-out: MIC
Description: as §2

H. influenzae 3457 = test: MIC, agar dilution, HTM medium; type: cell-based, Haemophilus influenzae; settings: Haemophilus influenzae, read-out: MIC
Description: as §2

H. influenzae 3640 = test: MIC, agar dilution, HTM medium; type: cell-based, Haemophilus influenzae; settings: Haemophilus influenzae, read-out: MIC
Description: as §2

H. influenzae 4139 = test: MIC, agar dilution, HTM medium; type: cell-based, Haemophilus influenzae; settings: Haemophilus influenzae, read-out: MIC
Description: as §2

H. influenzae ATCC 49247 = test: MIC, agar dilution, HTM medium; type: cell-based, Haemophilus influenzae; settings: Haemophilus influenzae, ATCC49247, read-out: MIC
Description: as §2

H. influenzae ATCC 9334 = test: MIC, agar dilution, HTM medium; type: cell-based, Haemophilus influenzae; settings: Haemophilus influenzae, ATCC9334, read-out: MIC
Description: as §2

H. influenzae B 1501 = test: MIC, agar dilution, HTM medium; type: cell-based, Haemophilus influenzae; settings: Haemophilus influenzae, B1501, read-out: MIC
Description: as §2

H. influenzae Christy = test: MIC, agar dilution, HTM medium; type: cell-based, Haemophilus influenzae; settings: Haemophilus influenzae, read-out: MIC
Description: as §2

H. influenzae H13 LAH = test: MIC, agar dilution, HTM medium; type: cell-based, Haemophilus influenzae; settings: Haemophilus influenzae, H13LAH, read-out: MIC
Description: as §2

H. influenzae H20 HDL = test: MIC, agar dilution, HTM medium; type: cell-based, Haemophilus influenzae; settings: Haemophilus influenzae, H20HDL, read-out: MIC
Description: as §2

H. influenzae H28 HEL = test: MIC, agar dilution, HTM medium; type: cell-based, Haemophilus influenzae; settings: Haemophilus influenzae, H28HEL, read-out: MIC
Description: as §2

H. influenzae H36 ODL = test: MIC, agar dilution, HTM medium; type: cell-based, Haemophilus influenzae; settings: Haemophilus influenzae, H36ODL, read-out: MIC
Description: as §2

H. influenzae QK 12/87 = test: MIC, agar dilution, HTM medium; type: cell-based, Haemophilus influenzae; settings: Haemophilus influenzae, QK12/87, read-out: MIC
Description: as §2

H. influenzae QK 50 = test: MIC, agar dilution, HTM medium; type: cell-based, Haemophilus influenzae; settings: Haemophilus influenzae, QK50, read-out: MIC
Description: as §2

H. influenzae Rd KW20 = test: MIC, agar dilution, HTM medium; type: cell-based, Haemophilus influenzae; settings: Haemophilus influenzae, RDKW20, read-out: MIC
Description: as §2

SMILES | MIC (S. aureus 1086) [µg/mL] | MIC (S. aureus 745) [µg/mL] | MIC (S. aureus ATCC29213) [µg/mL] | MIC (E. coli ATCC25922) [µg/mL] | minimum inhibitory concentration (MIC) [1] [µg/mL] | MIC (St. pneumoniae 1/1) [µg/mL] | MIC (St. pneumoniae 1/4) [µg/mL] | MIC (St. pneumoniae 12288) [µg/mL] | MIC (St. pneumoniae SL199T) [µg/mL] | MIC (H. influenzae 11) [µg/mL] | MIC (H. influenzae 12214) [µg/mL] | MIC (H. influenzae 1) [µg/mL] | MIC (H. influenzae 23145) [µg/mL] | MIC (H. influenzae 23369) [µg/mL] | MIC (H. influenzae 2947) [µg/mL] | MIC (H. influenzae 3201) [µg/mL] | MIC (H. influenzae 3457) [µg/mL] | MIC (H. influenzae 3640) [µg/mL] | MIC (H. influenzae 4139) [µg/mL] | MIC (H. influenzae ATCC 49247) [µg/mL] | also measured
CC[C@H]1OC(=O)[C@H](C)C(=O)[C@H](C)[C@@H](O[C@@H]2O[C@H](C)C[C@H](N(C)C)[C@H]2O)[C@](C)(OC)C[C@@H](C)C(=O)[C@H](C)[C@H]2[C@H](SCCn3cnc4c(N)ncnc43)C(=O)O[C@@]21C [Compound I-14, (3S,3aR,4R,6R,8R,9R,10R,12R,15R,15aS)-3-[[2-[6-Amino-9H-purine-9-yl]ethyl]thio]-15-ethyloctahydro-8-methoxy-4,6,8,10,12,15a-hexamethyl-9-[[3,4,6-trideoxy-3-(dimethylamino)-β-D-xylo-hexopyranosyl]oxy]-2H-furo[2,3-c]oxacyclotetradecin-2,5,11,13(3H,6H,12H)-tetrone] | ≤ 0.12 | > 16 | ≤ 0.12 | 8 (≈ 9.94 µM) | >16 | ≤ 0.12 | 0.25 (≈ 0.311 µM) | 0.25 (≈ 0.311 µM) | 0.25 (≈ 0.311 µM) | 4 (≈ 4.97 µM) | 2 (≈ 2.48 µM) | 1 (≈ 1.24 µM) | 4 (≈ 4.97 µM) | 4 (≈ 4.97 µM) | 2 (≈ 2.48 µM) | 4 (≈ 4.97 µM) | 0.25 (≈ 0.311 µM) | 2 (≈ 2.48 µM) | 2 (≈ 2.48 µM) | 1 (≈ 1.24 µM) | MIC (H. influenzae ATCC 9334): 4 µg/mL (≈ 4.97 µM); MIC (H. influenzae B 1501): 1 µg/mL (≈ 1.24 µM); MIC (H. influenzae Christy): 2 µg/mL (≈ 2.48 µM); MIC (H. influenzae H13 LAH): 2 µg/mL (≈ 2.48 µM); MIC (H. influenzae H20 HDL): 1 µg/mL (≈ 1.24 µM); MIC (H. influenzae H28 HEL): 2 µg/mL (≈ 2.48 µM); MIC (H. influenzae H36 ODL): 2 µg/mL (≈ 2.48 µM); MIC (H. influenzae QK 12/87): 0.5 µg/mL (≈ 0.621 µM); MIC (H. influenzae QK 50): 2 µg/mL (≈ 2.48 µM); MIC (H. influenzae Rd KW20): 4 µg/mL (≈ 4.97 µM)
CC[C@H]1OC(=O)[C@H](C)[C@@H](O[C@H]2C[C@@](C)(OC)[C@@H](O)[C@H](C)O2)[C@H](C)[C@@H](O[C@@H]2O[C@H](C)C[C@H](N(C)C)[C@H]2O)[C@](C)(O)C[C@@H](C)C(=O)[C@H](C)[C@@H](O)[C@]1(C)O [Erythromycin (1), erythromycin A] | > 32 | > 64 | 0.5 (≈ 0.681 µM) | > 16 | >16 | ≤ 0.12 | 32 (≈ 43.6 µM) | > 32 | > 32 | 4 (≈ 5.45 µM) | 4 (≈ 5.45 µM) | 4 (≈ 5.45 µM) | 4 (≈ 5.45 µM) | 4 (≈ 5.45 µM) | 4 (≈ 5.45 µM) | 4 (≈ 5.45 µM) | 0.5 (≈ 0.681 µM) | 2 (≈ 2.73 µM) | 1 (≈ 1.36 µM) | 4 (≈ 5.45 µM) | MIC (H. influenzae ATCC 9334): 4 µg/mL (≈ 5.45 µM); MIC (H. influenzae B 1501): 4 µg/mL (≈ 5.45 µM); MIC (H. influenzae Christy): 4 µg/mL (≈ 5.45 µM); MIC (H. influenzae H13 LAH): 4 µg/mL (≈ 5.45 µM); MIC (H. influenzae H20 HDL): 2 µg/mL (≈ 2.73 µM); MIC (H. influenzae H28 HEL): 2 µg/mL (≈ 2.73 µM); MIC (H. influenzae H36 ODL): 4 µg/mL (≈ 5.45 µM); MIC (H. influenzae QK 12/87): 2 µg/mL (≈ 2.73 µM); MIC (H. influenzae QK 50): 4 µg/mL (≈ 5.45 µM); MIC (H. influenzae Rd KW20): 4 µg/mL (≈ 5.45 µM)
CC[C@H]1OC(=O)[C@H](C)C(=O)[C@H](C)[C@@H](O[C@@H]2O[C@H](C)C[C@H](N(C)C)[C@H]2O)[C@](C)(OC)C[C@@H](C)C(=O)[C@H](C)[C@H]2N(CCCCn3cnc(-c4cccnc4)c3)C(=O)O[C@]12C [Telithromycin (4), telithromycin] | ≤ 0.12 | > 64 | ≤ 0.12 | 16 (≈ 19.7 µM) | >16 | ≤ 0.12 | ≤ 0.12 | 0.25 (≈ 0.308 µM) | ≤ 0.12 | 4 (≈ 4.93 µM) | 4 (≈ 4.93 µM) | 4 (≈ 4.93 µM) | 4 (≈ 4.93 µM) | 4 (≈ 4.93 µM) | 4 (≈ 4.93 µM) | 4 (≈ 4.93 µM) | 0.25 (≈ 0.308 µM) | 2 (≈ 2.46 µM) | 2 (≈ 2.46 µM) | 4 (≈ 4.93 µM) | MIC (H. influenzae ATCC 9334): 2 µg/mL (≈ 2.46 µM); MIC (H. influenzae B 1501): 2 µg/mL (≈ 2.46 µM); MIC (H. influenzae Christy): 4 µg/mL (≈ 4.93 µM); MIC (H. influenzae H13 LAH): 2 µg/mL (≈ 2.46 µM); MIC (H. influenzae H20 HDL): 2 µg/mL (≈ 2.46 µM); MIC (H. influenzae H28 HEL): 2 µg/mL (≈ 2.46 µM); MIC (H. influenzae H36 ODL): 4 µg/mL (≈ 4.93 µM); MIC (H. influenzae QK 12/87): 1 µg/mL (≈ 1.23 µM); MIC (H. influenzae QK 50): 2 µg/mL (≈ 2.46 µM); MIC (H. influenzae Rd KW20): 4 µg/mL (≈ 4.93 µM)
